Laboratory results taken from BindingDB's records for doi:10.1021/jm0603926 (Taigen Biotechnology, 2006).

Target: Replicase polyprotein 1ab (Severe acute respiratory syndrome coronavirus, UniProt P0C6X7)
Assay: 3CL Protease Enzyme Assays
Conditions: pH 7.5; 25 °C
Method: The effects of compound on enzyme activity were measured by using peptide cleavage assay. Cleavage products were resolved and analyzed with a reverse-phase HPLC. Quantification of peak areas was used to determine the extent of substrate conversion. Ki was calculated using the equation of Cheng and Prusoff.

CCOC(=O)/C=C/[C@H](C[C@@H]1CCNC1=O)NC(=O)[C@H](Cc1ccc(F)cc1)NC(=O)[C@@H](NC(=O)c1cc(C)on1)C(C)C [AG7088 analogue 2a]
Ki: > 10000 nM

C[C@H](OC(C)(C)C)[C@H](NC(=O)OCc1ccccc1)C(=O)N[C@@H](CC1CCCCC1)C(=O)N[C@H](C=O)C[C@@H]1CCNC1=O [benzyl N-[(1S,2S)-2-(tert-butoxy)-1-{[(1S)-2-cyclohexyl-1-{[(2S)-1-oxo-3-[(3S)-2-oxopyrrolidin-3-yl]propan-2-yl]carbamoyl}ethyl]carbamoyl}propyl]carbamate]
Ki: 53 nM
